Results: ChEMBL document CHEMBL1201862, “PubChem BioAssay data set” (2004)
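Growth conditions: 96-well plates. Treatment: test compound, 48 hours, 5 concentrations. Analysis: linear interpolation between bracketing concentrations; unreached endpoints set to highest concentration. GI50 is the concentration that inhibits growth by half.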 Calls of active or inactive are those of the source. Cut-off read from the data, not from the text of the source: active = GI50 up to about 1.1 µM and inactive = higher.

Assays:
Experiment in all cases: growth of human tumour cells (NCI), 48 h
HCT-116 = test system: HCT-116
OVCAR-3 = test system: OVCAR-3
SK-MEL-2 = test system: SK-MEL-2
Malme-3M = test system: Malme-3M
EKVX = test system: EKVX
UACC-257 = test system: UACC-257
NCI-H226 = test system: NCI-H226
U-251 = test system: U-251
NCI-H23 = test system: NCI-H23
SW-620 = test system: SW-620
HT-29 = test system: HT-29
M14 = test system: M14
MDA-MB-435 = test system: MDA-MB-435
MDA-N = test system: MDA-N
RPMI-8226 = test system: RPMI-8226
DU-145 = test system: DU-145
RXF 393 = test system: RXF 393
MOLT-4 = test system: MOLT-4
HCT-15 = test system: HCT-15
HCC 2998 = test system: HCC 2998

Compound: CCC1c2[nH]c3ccccc3c2C[C@H]2C(=O)NC(CCC(=O)OC(C)(C)C)C(=O)N12 (stereo partly drawn)
- GI50 (HCT-116): 43.3 µM (inactive)
- GI50 (OVCAR-3): 22.4 µM (inactive)
- GI50 (SK-MEL-2): 60.8 µM (inactive)
- GI50 (Malme-3M): 12.6 µM (inactive)
- GI50 (EKVX): 42.6 µM (inactive)
- GI50 (UACC-257): 40.2 µM (inactive)
- GI50 (NCI-H226): > 100 µM (inactive)
- GI50 (U-251): 56.6 µM (inactive)
- GI50 (NCI-H23): 68.7 µM (inactive)
- GI50 (SW-620): 67.3 µM (inactive)
- GI50 (HT-29): 34 µM (inactive)
- GI50 (M14): 42.5 µM (inactive)
- GI50 (MDA-MB-435): 49.5 µM (inactive)
- GI50 (MDA-N): 51.5 µM (inactive)
- GI50 (RPMI-8226): 31.6 µM (inactive)
- GI50 (DU-145): > 100 µM (inactive)
- GI50 (RXF 393): 52.7 µM (inactive)
- GI50 (MOLT-4): 35.3 µM (inactive)
- GI50 (HCT-15): 52 µM

Compound: O=C(/C=C/c1cccs1)c1ccc(Cl)s1
- GI50 (HCT-116): 18.2 µM (inactive)
- GI50 (SK-MEL-2): > 100 µM (inactive)
- GI50 (Malme-3M): > 100 µM (inactive)
- GI50 (EKVX): > 100 µM (inactive)
- GI50 (UACC-257): 39.8 µM (inactive)
- GI50 (NCI-H226): 28.7 µM (inactive)
- GI50 (U-251): 40.8 µM (inactive)
- GI50 (NCI-H23): 23.1 µM (inactive)
- GI50 (HCC 2998): 18.7 µM (inactive)
- GI50 (SW-620): 23.3 µM (inactive)
- GI50 (HT-29): > 10 µM (inactive)
- GI50 (M14): 38.8 µM (inactive)
- GI50 (MDA-MB-435): 21.9 µM (inactive)
- GI50 (MDA-N): > 10 µM (inactive)
- GI50 (RPMI-8226): 17.5 µM (inactive)
- GI50 (DU-145): 56 µM (inactive)
- GI50 (MOLT-4): 23.8 µM (inactive)
- GI50 (HCT-15): 18.2 µM

Compound: CC(=O)C1C(=O)C(=O)N(c2ccccc2)C1=O (stereo not drawn)
- GI50 (HCT-116): > 100 µM (inactive)
- GI50 (OVCAR-3): > 100 µM (inactive)
- GI50 (SK-MEL-2): > 100 µM (inactive)
- GI50 (EKVX): > 100 µM (inactive)
- GI50 (UACC-257): > 100 µM (inactive)
- GI50 (NCI-H226): > 100 µM (inactive)
- GI50 (U-251): > 100 µM (inactive)
- GI50 (NCI-H23): > 100 µM (inactive)
- GI50 (HCC 2998): > 100 µM (inactive)
- GI50 (SW-620): > 100 µM (inactive)
- GI50 (HT-29): > 100 µM (inactive)
- GI50 (M14): > 100 µM (inactive)
- GI50 (MDA-MB-435): > 100 µM (inactive)
- GI50 (MDA-N): > 100 µM (inactive)
- GI50 (DU-145): > 100 µM (inactive)
- GI50 (RXF 393): > 100 µM (inactive)
- GI50 (MOLT-4): > 100 µM (inactive)
- GI50 (HCT-15): > 100 µM

Compound: CC(N/N=N/c1ccc(-c2nc3ccccc3[nH]2)cc1)C(=O)O (stereo not drawn)
- GI50 (HCT-116): 28.9 µM (inactive)
- GI50 (OVCAR-3): 18.6 µM (inactive)
- GI50 (SK-MEL-2): 59.3 µM (inactive)
- GI50 (Malme-3M): 26.3 µM (inactive)
- GI50 (EKVX): 31.8 µM (inactive)
- GI50 (UACC-257): > 100 µM (inactive)
- GI50 (NCI-H226): > 100 µM (inactive)
- GI50 (U-251): 18.1 µM (inactive)
- GI50 (NCI-H23): 62.2 µM (inactive)
- GI50 (SW-620): 29.8 µM (inactive)
- GI50 (HT-29): 29.5 µM (inactive)
- GI50 (M14): 35.1 µM (inactive)
- GI50 (MDA-MB-435): 32.7 µM (inactive)
- GI50 (MDA-N): 27.5 µM (inactive)
- GI50 (RPMI-8226): 1.91 µM (inactive)
- GI50 (DU-145): 49.4 µM (inactive)
- GI50 (RXF 393): 34.1 µM (inactive)
- GI50 (MOLT-4): 5.01 µM (inactive)
- GI50 (HCT-15): 9.57 µM

Compound: CN1CCCCC1CCN1c2ccccc2Sc2ccc([S+](C)[O-])cc21 (stereo not drawn) [MESORIDAZINE]
- GI50 (HCT-116): > 100 µM (inactive)
- GI50 (OVCAR-3): > 100 µM (inactive)
- GI50 (SK-MEL-2): > 100 µM (inactive)
- GI50 (Malme-3M): > 100 µM (inactive)
- GI50 (EKVX): > 100 µM (inactive)
- GI50 (UACC-257): > 100 µM (inactive)
- GI50 (NCI-H226): > 100 µM (inactive)
- GI50 (U-251): > 100 µM (inactive)
- GI50 (NCI-H23): > 100 µM (inactive)
- GI50 (SW-620): > 100 µM (inactive)
- GI50 (HT-29): > 100 µM (inactive)
- GI50 (M14): > 100 µM (inactive)
- GI50 (MDA-MB-435): > 100 µM (inactive)
- GI50 (MDA-N): > 100 µM (inactive)
- GI50 (RPMI-8226): > 100 µM (inactive)
- GI50 (DU-145): > 100 µM (inactive)
- GI50 (RXF 393): > 100 µM (inactive)
- GI50 (MOLT-4): > 100 µM (inactive)
- GI50 (HCT-15): > 100 µM

Compound: c1ccc2nn(C3CCCO3)nc2c1 (stereo not drawn)
- GI50 (HCT-116): > 100 µM (inactive)
- GI50 (OVCAR-3): > 100 µM (inactive)
- GI50 (SK-MEL-2): > 100 µM (inactive)
- GI50 (Malme-3M): > 100 µM (inactive)
- GI50 (EKVX): > 100 µM (inactive)
- GI50 (UACC-257): > 100 µM (inactive)
- GI50 (NCI-H226): > 100 µM (inactive)
- GI50 (U-251): > 100 µM (inactive)
- GI50 (NCI-H23): > 100 µM (inactive)
- GI50 (HCC 2998): > 100 µM (inactive)
- GI50 (HT-29): > 100 µM (inactive)
- GI50 (M14): > 100 µM (inactive)
- GI50 (MDA-MB-435): > 100 µM (inactive)
- GI50 (MDA-N): > 100 µM (inactive)
- GI50 (DU-145): > 100 µM (inactive)
- GI50 (RXF 393): > 100 µM (inactive)
- GI50 (MOLT-4): > 100 µM (inactive)
- GI50 (HCT-15): > 100 µM

Compound: NNC(=O)c1nnn(CCc2ccccc2)c1C(=O)NN
- GI50 (HCT-116): > 100 µM (inactive)
- GI50 (OVCAR-3): > 100 µM (inactive)
- GI50 (SK-MEL-2): > 100 µM (inactive)
- GI50 (Malme-3M): > 100 µM (inactive)
- GI50 (EKVX): > 100 µM (inactive)
- GI50 (UACC-257): > 100 µM (inactive)
- GI50 (U-251): > 100 µM (inactive)
- GI50 (NCI-H23): > 100 µM (inactive)
- GI50 (HCC 2998): > 100 µM (inactive)
- GI50 (HT-29): > 100 µM (inactive)
- GI50 (M14): > 100 µM (inactive)
- GI50 (MDA-MB-435): > 100 µM (inactive)
- GI50 (MDA-N): > 100 µM (inactive)
- GI50 (RPMI-8226): > 100 µM (inactive)
- GI50 (DU-145): > 100 µM (inactive)
- GI50 (MOLT-4): > 100 µM (inactive)
- GI50 (HCT-15): > 100 µM
